Measured values from patent publication US20250034212A1, “PEPTIDE” (PEPTIDREAM INC., priority 2021, published 2025).
Each block holds one compound with its values, some of them ahead of it. Starred links: 1 amine or outer side, 2 acyl side, 3 side chain; linkers in the order of their positions; H or OH if unused. Positions of bridges follow the written chain, without caps; N, C: chain ends. Non-standard residues stand in square brackets, D forms with d. Residues, ends and D or L forms follow the SMILES beside them. Groups on a side chain read outwards from the residue. *: point of attachment. Meglumine = CN(C[C@H](O)[C@@H](O)[C@H](O)[C@H](O)CO)*; Trp(6-aza) = N[C@@H](Cc1c[nH]c2cnccc12)C(=O)O; Trp(7-aza) = N[C@@H](Cc1c[nH]c2ncccc12)C(=O)O; Piperazinyl(4-CH2COOH) = O=C(O)CN1CCN(*)CC1; 1Nal = N[C@@H](Cc1cccc2ccccc12)C(=O)O; Gly(NCH2CH2Ph) = O=C(O)CNCCc1ccccc1; 4Pal = N[C@@H](Cc1ccncc1)C(=O)O; CO = O=C([*:1])[*:2]

Molecular target: T1, recombinant human TGF-β1 (Homo sapiens, UniProt P01137)
T1 construct: purchased R&D systems
T1 sequence (P01137 279-390 limits assumed): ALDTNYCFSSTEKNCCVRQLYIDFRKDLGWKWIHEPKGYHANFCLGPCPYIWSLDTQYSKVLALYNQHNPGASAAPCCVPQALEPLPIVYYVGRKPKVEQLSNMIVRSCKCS
Test: SBE reporter assay in SBE reporter-HEK293 cells, TGF-β1 stimulation
Format: cell-based
Details: TGF-β1 0.13 nM, 18 hours; for inhibition at 75 pM: peptide 0.075 nM; for inhibition at 0.00075 µM: peptide 0.75 nM; for inhibition at 0.0075 µM: peptide 7.5 nM; for inhibition at 0.075 µM: peptide 75.0 nM
Description: The inhibitory activity of the peptide can be calculated without limitation while the maximum signal induced by TGF-β is set to 0% inhibition and no stimulation is set to 100% inhibition. When the peptide is used at an appropriate concentration, for example, at the optimal concentration, the inhibitory activity is not limited but the inhibition is 5% or more, 10% or more, 20% or more, 30% or more, 40% or more, 50% or more, 60% or more, 70% or more, 80% or more, or 90% or more.
In this Example, the TGF-β1 inhibitory activity of the peptide of the present invention consisting of the amino acid sequence set forth in SEQ ID NOs: 2-33 synthesized in Examples 1 to 5 and 7 was evaluated by an SBE reporter assay using the SBE reporter-HEK293 cell system (BP Bioscience) as follows.
SBE reporter-HEK293 cells were cultured in E-MEM (Wako) containing 10% FBS (Sigma). The cells were detached using Accutase (Innovative Cell Technologies), suspended in E-MEM containing 0.5% FBS, seeded onto a 96-well plate(s) at a concentration of 45,000 cells per well, and cultured overnight. The next day, the peptide was added and allowed to stand for 20 min, and recombinant human TGF-β1 (R&D systems) or recombinant human TGF-β2 (R&D systems) was then added at 0.13 nM and cultured for 18 hours.
Thereafter, luciferase assay ONE-Glo reagent was added to each well and the plate was shaken for 5 min. A SpectraMax Paradigm multimode microplate reader (Molecular Devices) was then used for signal detection. The obtained signals were analyzed by GraphPad Prism. The inhibitory activity of the peptide was calculated while the maximum signal induced by TGF-β was set to 0% inhibition and no stimulation was set to 100% inhibition.

SMILES: CC(C)[C@@H]1NC(=O)CN(CCc2ccccc2)C(=O)[C@H](CC(=O)O)NC(=O)[C@H](CC(=O)O)NC(=O)[C@H](Cc2ccc(O)cc2)NC(=O)[C@H](C(C)C)NC(=O)[C@H](CC(N)=O)NC(=O)[C@H](C(C)C)NC(=O)[C@H](C(C)C)NC(=O)[C@H](Cc2c[nH]c3ccccc23)NC(=O)[C@H](Cc2ccccc2)NC(=O)CSC[C@@H](C(=O)NCC(N)=O)NC(=O)[C@H](C(C)C)NC(=O)[C@H](Cc2c[nH]cn2)NC(=O)[C@H](Cc2ccc(O)cc2)NC(=O)[C@H](Cc2cccc3ccccc23)NC1=O [TGFb1_003] ({CH2CO}-FWVVNVYDD[Gly(NCH2CH2Ph)]V[1Nal]YHVCG-NH2; thioether N-16)
inhibition at 75 pM: 1.6%
inhibition at 0.00075 µM: 65.2%
inhibition at 0.0075 µM: 97.3%
inhibition at 0.075 µM: 98.8%

SMILES: CC(C)[C@@H]1NC(=O)CN(CCc2ccccc2)C(=O)[C@H](CC(=O)O)NC(=O)[C@H](CC(=O)O)NC(=O)[C@H](Cc2ccc(O)cc2)NC(=O)[C@H](C(C)C)NC(=O)[C@H](CC(N)=O)NC(=O)[C@H](C(C)C)NC(=O)[C@H](C(C)C)NC(=O)[C@H](Cc2c[nH]c3cnccc23)NC(=O)[C@H](Cc2ccccc2)NC(=O)CSC[C@@H](C(=O)NCC(N)=O)NC(=O)[C@H](C(C)C)NC(=O)[C@H](Cc2c[nH]cn2)NC(=O)[C@H](Cc2ccc(O)cc2)NC(=O)[C@H](Cc2cccc3ccccc23)NC1=O [TGFb1_004] ({CH2CO}-F[Trp(6-aza)]VVNVYDD[Gly(NCH2CH2Ph)]V[1Nal]YHVCG-NH2; thioether N-16)
inhibition at 75 pM: 0%
inhibition at 0.00075 µM: 0.9%
inhibition at 0.0075 µM: 70.1%
inhibition at 0.075 µM: 94.9%

SMILES: CC(C)[C@@H]1NC(=O)CN(CCc2ccccc2)C(=O)[C@H](CC(=O)O)NC(=O)[C@H](CC(=O)O)NC(=O)[C@H](Cc2ccc(O)cc2)NC(=O)[C@H](C(C)C)NC(=O)[C@H](CC(N)=O)NC(=O)[C@H](C(C)C)NC(=O)[C@H](C(C)C)NC(=O)[C@H](Cc2c[nH]c3ncccc23)NC(=O)[C@H](Cc2ccccc2)NC(=O)CSC[C@@H](C(=O)NCC(N)=O)NC(=O)[C@H](C(C)C)NC(=O)[C@H](Cc2c[nH]cn2)NC(=O)[C@H](Cc2ccc(O)cc2)NC(=O)[C@H](Cc2cccc3ccccc23)NC1=O [TGFb1_005] ({CH2CO}-F[Trp(7-aza)]VVNVYDD[Gly(NCH2CH2Ph)]V[1Nal]YHVCG-NH2; thioether N-16)
inhibition at 75 pM: 0.4%
inhibition at 0.00075 µM: 47%
inhibition at 0.0075 µM: 90.8%
inhibition at 0.075 µM: 98.9%

SMILES: CC(C)[C@@H]1NC(=O)CN(CCc2ccccc2)C(=O)[C@H](CC(=O)O)NC(=O)[C@H](CC(=O)O)NC(=O)[C@H](Cc2ccncc2)NC(=O)[C@H](C(C)C)NC(=O)[C@H](CC(N)=O)NC(=O)[C@H](C(C)C)NC(=O)[C@H](C(C)C)NC(=O)[C@H](Cc2c[nH]c3ncccc23)NC(=O)[C@H](Cc2ccccc2)NC(=O)CSC[C@@H](C(=O)NCC(N)=O)NC(=O)[C@H](C(C)C)NC(=O)[C@H](Cc2c[nH]cn2)NC(=O)[C@H](Cc2ccc(O)cc2)NC(=O)[C@H](Cc2cccc3ccccc23)NC1=O [TGFb1_008] ({CH2CO}-F[Trp(7-aza)]VVNV[4Pal]DD[Gly(NCH2CH2Ph)]V[1Nal]YHVCG-NH2; thioether N-16)
inhibition at 75 pM: 3.8%
inhibition at 0.00075 µM: 56.8%
inhibition at 0.0075 µM: 94.6%
inhibition at 0.075 µM: 98.4%

Second part, the compound after the results:

inhibition at 75 pM: 0.1%
inhibition at 0.00075 µM: 37.5%
inhibition at 0.0075 µM: 83.5%
inhibition at 0.075 µM: 96.7%
SMILES: CC(C)[C@@H]1NC(=O)CN(CCc2ccccc2)C(=O)[C@H](CC(=O)O)NC(=O)[C@H](CC(=O)O)NC(=O)[C@H](Cc2ccncc2)NC(=O)[C@H](C(C)C)NC(=O)[C@H](CC(N)=O)NC(=O)[C@H](CCCCN)NC(=O)[C@H](C(C)C)NC(=O)[C@H](Cc2cccc3ccccc23)NC(=O)[C@H](Cc2ccccc2)NC(=O)CSC[C@@H](C(=O)NCC(N)=O)NC(=O)[C@H](C(C)C)NC(=O)[C@H](Cc2c[nH]cn2)NC(=O)[C@H](Cc2ccc(O)cc2)NC(=O)[C@H](Cc2cccc3ccccc23)NC1=O [TGFb1_007] ({CH2CO}-F[1Nal]VKNV[4Pal]DD[Gly(NCH2CH2Ph)]V[1Nal]YHVCG-NH2; thioether N-16)

inhibition at 75 pM: 2.7%
inhibition at 0.00075 µM: 53%
inhibition at 0.0075 µM: 94.8%
inhibition at 0.075 µM: 99.6%
SMILES: CC(C)[C@@H]1NC(=O)CN(CCc2ccccc2)C(=O)[C@H](CC(=O)O)NC(=O)[C@H](CC(=O)O)NC(=O)[C@H](Cc2ccncc2)NC(=O)[C@H](C(C)C)NC(=O)[C@H](CC(N)=O)NC(=O)[C@H](C(C)C)NC(=O)[C@H](C(C)C)NC(=O)[C@H](Cc2cccc3ccccc23)NC(=O)[C@H](Cc2ccccc2)NC(=O)CSC[C@@H](C(=O)NCC(N)=O)NC(=O)[C@H](C(C)C)NC(=O)[C@H](Cc2c[nH]cn2)NC(=O)[C@H](Cc2ccncc2)NC(=O)[C@H](Cc2cccc3ccccc23)NC1=O [TGFb1_009] ({CH2CO}-F[1Nal]VVNV[4Pal]DD[Gly(NCH2CH2Ph)]V[1Nal][4Pal]HVCG-NH2; thioether N-16)

inhibition at 75 pM: 2%
inhibition at 0.00075 µM: 63.8%
inhibition at 0.0075 µM: 97.9%
inhibition at 0.075 µM: 99.9%
SMILES: CC(C)[C@@H]1NC(=O)CN(CCc2ccccc2)C(=O)[C@H](CC(=O)O)NC(=O)[C@H](CC(=O)O)NC(=O)[C@H](Cc2ccncc2)NC(=O)[C@H](C(C)C)NC(=O)[C@H](CC(N)=O)NC(=O)[C@H](CCCCNC(=O)N2CCN(CC(=O)O)CC2)NC(=O)[C@H](C(C)C)NC(=O)[C@H](Cc2cccc3ccccc23)NC(=O)[C@H](Cc2ccccc2)NC(=O)CSC[C@@H](C(=O)NCC(N)=O)NC(=O)[C@H](C(C)C)NC(=O)[C@H](Cc2c[nH]cn2)NC(=O)[C@H](Cc2ccc(O)cc2)NC(=O)[C@H](Cc2cccc3ccccc23)NC1=O [TGFb1_010] ({CH2CO}-F[1Nal]VK([CO-Piperazinyl(4-CH2COOH)])NV[4Pal]DD[Gly(NCH2CH2Ph)]V[1Nal]YHVCG-NH2; thioether N-16)

inhibition at 75 pM: 6.1%
inhibition at 0.00075 µM: 76.3%
inhibition at 0.0075 µM: 97.9%
inhibition at 0.075 µM: 100%
SMILES: CC(C)[C@@H]1NC(=O)CN(CCc2ccccc2)C(=O)[C@H](CCCCNC(=O)N2CCN(CC(=O)O)CC2)NC(=O)[C@H](CC(=O)O)NC(=O)[C@H](Cc2ccncc2)NC(=O)[C@H](C(C)C)NC(=O)[C@H](CC(N)=O)NC(=O)[C@H](C(C)C)NC(=O)[C@H](C(C)C)NC(=O)[C@H](Cc2cccc3ccccc23)NC(=O)[C@H](Cc2ccccc2)NC(=O)CSC[C@@H](C(=O)NCC(N)=O)NC(=O)[C@H](C(C)C)NC(=O)[C@H](Cc2c[nH]cn2)NC(=O)[C@H](Cc2ccc(O)cc2)NC(=O)[C@H](Cc2cccc3ccccc23)NC1=O [TGFb1_011] ({CH2CO}-F[1Nal]VVNV[4Pal]DK([CO-Piperazinyl(4-CH2COOH)])[Gly(NCH2CH2Ph)]V[1Nal]YHVCG-NH2; thioether N-16)

inhibition at 75 pM: 0%
inhibition at 0.00075 µM: 64.8%
inhibition at 0.0075 µM: 97.2%
inhibition at 0.075 µM: 98.8%
SMILES: CC(C)[C@@H]1NC(=O)CN(CCc2ccccc2)C(=O)[C@H](CC(=O)O)NC(=O)[C@H](CC(=O)O)NC(=O)[C@H](Cc2ccncc2)NC(=O)[C@H](C(C)C)NC(=O)[C@H](CC(N)=O)NC(=O)[C@H](CCCCNC(=O)N(C)C[C@H](O)[C@@H](O)[C@H](O)[C@H](O)CO)NC(=O)[C@H](C(C)C)NC(=O)[C@H](Cc2cccc3ccccc23)NC(=O)[C@H](Cc2ccccc2)NC(=O)CSC[C@@H](C(=O)NCC(N)=O)NC(=O)[C@H](C(C)C)NC(=O)[C@H](Cc2c[nH]cn2)NC(=O)[C@H](Cc2ccc(O)cc2)NC(=O)[C@H](Cc2cccc3ccccc23)NC1=O [TGFb1_014] ({CH2CO}-F[1Nal]VK([CO-Meglumine])NV[4Pal]DD[Gly(NCH2CH2Ph)]V[1Nal]YHVCG-NH2; thioether N-16)

inhibition at 75 pM: 0%
inhibition at 0.00075 µM: 76.9%
inhibition at 0.0075 µM: 98.7%
inhibition at 0.075 µM: 98.4%
SMILES: CC(C)[C@@H]1NC(=O)CN(CCc2ccccc2)C(=O)[C@H](CCCCNC(=O)N(C)C[C@H](O)[C@@H](O)[C@H](O)[C@H](O)CO)NC(=O)[C@H](CC(=O)O)NC(=O)[C@H](Cc2ccncc2)NC(=O)[C@H](C(C)C)NC(=O)[C@H](CC(N)=O)NC(=O)[C@H](C(C)C)NC(=O)[C@H](C(C)C)NC(=O)[C@H](Cc2cccc3ccccc23)NC(=O)[C@H](Cc2ccccc2)NC(=O)CSC[C@@H](C(=O)NCC(N)=O)NC(=O)[C@H](C(C)C)NC(=O)[C@H](Cc2c[nH]cn2)NC(=O)[C@H](Cc2ccc(O)cc2)NC(=O)[C@H](Cc2cccc3ccccc23)NC1=O [TGFb1_015] ({CH2CO}-F[1Nal]VVNV[4Pal]DK([CO-Meglumine])[Gly(NCH2CH2Ph)]V[1Nal]YHVCG-NH2; thioether N-16)
